Patent US20080233209A1, “Composition and method of use for the treatment of metabolic syndrome and inflammation” (POLIFENOLES NATURALES, SL, priority 2007, published 2008)
Entries after “also recorded” stand apart in the source; their conditions may differ. Where two headings read alike, the source gives them in different places.

Assays:
[1] = Tolerability in the 16-week clinical trial of Example 1; type: in vivo, human
Description: Forty-one (n=41) volunteers with an average body weight of 91.5±14.4 kgs (201+9.7 lbs), body fat of 40.4±3.7 kgs (88.8+8 lbs), liver fat content above 10% and average age of 37.4±4.8 years were recruited to take part in a 16-week clinical trial. Daily meal composition was 50% carbohydrate, 30% protein and 20% fat. Food record data, body composition, EER, and blood sample analysis results were assessed on admission and every week for 16-weeks. Energy expenditure rate (EER) was measured by indirect calorimetry. Plasma levels of inflammatory markers alanine aminotransferase (ALT), aspartate aminotransferase (AST), g-glutamyltransferase (GGT) enzymes and C-reactive protein (CRP) were evaluated as measures of liver function, along with diastolic and systolic blood pressure, dual-energy X-ray absorptiometry to determine percent of lean and fat body mass, and liver fat content.
Subjects were randomly assigned to one of 10 treatments or placebo (total 11 groups), which were in softgel capsules and were to be consumed with water 15 to 30 mins. before meals. Each phytomedicine soft-gel capsule provided 100 mg of Undaria pinnatifida (Phaeophyceae) brown marine vegetable extract and 100 mg of cold-pressed pomegranate (Punica granatum, Punicaceae) seed oil.
All subjects completed 16 weeks clinical trial without any reported adverse effects. […]

[2] = Energy expenditure rate (EER) by indirect calorimetry, 16-week double-blind placebo-controlled trial in obese non-diabetic female volunteers with NAFLD (Example 1); type: in vivo, human; design: key to Effects on EER: NE = No effect; * = significant vs. placebo and vs. baseline, p < 0.05% at the week listed for the duration of the study; *** = significant vs. placebo and vs. baseline, p < 0.001%; conditions: for Effects on EER: 16 weeks
Description: The objectives of the study were to investigate the effects of different doses of a brown marine vegetable extract standardized by fucoxanthin content, pomegranate seed oil containing a minimum of 70% punicic acid, and the phytomedicine combining, both of fucoxanthin and pomegranate seed oil, on energy expenditure rate (EER) in obese non-diabetic female volunteers with non-alcoholic fatty liver disease (NAFLD) on a moderate calorie restriction diet. Forty-one (n=41) volunteers with an average body weight of 91.5±14.4 kgs (201+9.7 lbs), body fat of 40.4±3.7 kgs (88.8+8 lbs), liver fat content above 10% and average age of 37.4±4.8 years were recruited to take part in a 16-week clinical trial. Daily meal composition was 50% carbohydrate, 30% protein and 20% fat. Food record data, body composition, EER, and blood sample analysis results were assessed on admission and every week for 16-weeks. Energy expenditure rate (EER) was measured by indirect calorimetry. Plasma levels of inflammatory markers alanine aminotransferase (ALT), aspartate aminotransferase (AST), g-glutamyltransferase (GGT) enzymes and C-reactive protein (CRP) were evaluated as measures of liver function, along with diastolic and systolic blood pressure, dual-energy X-ray absorptiometry to determine percent of lean and fat body mass, and liver fat content. Subjects were randomly assigned to one of 10 treatments or placebo (total 11 groups), which were in softgel capsules and were to be consumed with water 15 to 30 mins. before meals. Each phytomedicine soft-gel capsule provided 100 mg of Undaria pinnatifida (Phaeophyceae) brown marine vegetable extract and 100 mg of cold-pressed pomegranate (Punica granatum, Punicaceae) seed oil.

[3] = fucoxanthin, wistar rats; cited from earlier work
[4] = fucoxanthin, cited from earlier work
[5] = system: mitochondrial uncoupling protein 1 (UCP1); conditions: fucoxanthin; cited from earlier work

Substance	tolerability ([1]; human, in vivo)	Effects on EER vs. placebo and baseline ([2]; 8.40 mg fucoxanthin)	Effects on EER vs. those of 4.20 mg fucoxanthin ([2]; 8.40 mg fucoxanthin)	minimum doses that resulted in statistically significant increases in EER ([2]; 16-week trial, fucoxanthin as mg fucoxanthin/day) [mg]	Effects on EER ([2]; Fucoxanthin 1.68 mg/day)	Effects on EER ([2]; Fucoxanthin 2.52 mg/day)	Effects on EER ([2]; Fucoxanthin 4.20 mg/day)	Effects on EER ([2]; Fucoxanthin 8.40 mg/day)	EER in obese subjects (overall) ([2]; oral supplementation, effect dose-dependent and time-dependent)	tolerability ([1]; 16 weeks, all subjects, no reported adverse effects)	WAT [3]	body weight ([4]; KK-Ay mice)	WAT ([4]; obese KK-Ay mice)	expression of uncoupling protein UCP1 gene in white adipose tissue (WAT) [5]
Pomegranate Seed Oil	well tolerated													
fucoxanthin		highly significant	significant	2.52	NE	* (* = significant vs. placebo and vs. baseline, p < 0.05% at the week listed for the duration of the study)	* (* = significant vs. placebo and vs. baseline, p < 0.05% at the week listed for the duration of the study)	*** (*** = significant vs. placebo and vs. baseline, p < 0.001%)	increased; also recorded: statistically significant dose-dependent increase	well tolerated	reduced WAT	significant reduction	reduced WAT	upregulates
